# Measured values: US7063977B2, “Enzymatic resolution of t-butyl taxane derivatives” (Bristol-Myers Squibb Company, priority 2001, dated 2006)
# Read-outs that look alike come from different tables or passages of the source.
# Columns and labels:
# tumors in mice = settings: oral administration; AACR 1999 abstract 1905; cited from earlier work
# human tumor xenografts [1] = settings: oral; xenografts implanted in athymic rates
# [2] = oral administration; Eiseman et al., Suffness et al., quoted from WO 98/53811; cited from earlier work
# [3] = up to 160 mg/kg/day, Suffness et al.; cited from earlier work
# sc M109 = settings: oral, doses as high as 160 mg/kg/inj; toxic doses not reached; cited from earlier work
# human tumor xenografts [4] = settings: oral; xenografts implanted in athymic mice
SMILES,oral activity against tumors in mice (tumors in mice),activity of orally administered drug against human tumor xenografts (human tumor xenografts [1]),absorbed when administered orally [2],antitumor activity on oral administration [3],efficacy in murine tumor models (sc M109) (sc M109),activity of orally administered drug against human tumor xenografts (human tumor xenografts [4])
CC(=O)O[C@H]1C(=O)[C@@]2(C)[C@H]([C@H](OC(=O)c3ccccc3)[C@]34OC(=O)O[C@H]3[C@H](OC(=O)[C@H](O)[C@H](CC(C)C)NC(=O)OC(C)(C)C)C(C)=C1C4(C)C)[C@]1(OC(C)=O)CO[C@@H]1C[C@@H]2O [IDN-5109],oral activity,,,,,
CC(=O)O[C@H]1C(=O)[C@@]2(C)[C@H]([C@H](OC(=O)c3ccccc3)[C@]3(O)C[C@H](OC(=O)[C@H](O)[C@@H](NC(=O)c4ccccc4)c4ccccc4)C(C)=C1C3(C)C)[C@]1(OC(C)=O)CO[C@@H]1C[C@@H]2O [paclitaxel],,unsuccessful,less than 1%,no evidence of antitumor activity,without signs of any efficacy,unsuccessful
